Measured values from ChEMBL document CHEMBL4308841, “Synthesis, in vitro antiproliferative activity, and kinase inhibitory effects of pyrazole-containing diarylureas and diarylamides” (Eur J Med Chem, 2018).

Columns and labels:
PC-3 = assay: Growth inhibition of human PC3 cells incubated for 48 hrs by sulforhodamine B assay; assay type: functional, cell-based; conditions: PC-3, 48 h
SNB-19 = assay: Growth inhibition of human SNB19 cells incubated for 48 hrs by sulforhodamine B assay; assay type: functional, cell-based; conditions: SNB-19, 48 h
NCI-H322M [1] = assay: Growth inhibition of human NCI-H322M cells assessed as cell growth at 0.1 uM incubated for 48 hrs by sulforhodamine B assay relative to control; assay type: functional; conditions: read-out: Activity
MDA-MB-435 = assay: Growth inhibition of human MDA-MB-435 cells assessed as cell growth at 0.01 uM incubated for 48 hrs by sulforhodamine B assay relative to control; assay type: functional; conditions: MDA-MB-435, 48 h, read-out: Activity
NCI-H322M [2] = assay: Growth inhibition of human NCI-H322M cells assessed as cell growth at 0.01 uM incubated for 48 hrs by sulforhodamine B assay relative to control; assay type: functional; conditions: read-out: Activity
DU-145 = assay: Growth inhibition of human DU145 cells assessed as cell growth at 0.01 uM incubated for 48 hrs by sulforhodamine B assay relative to control; assay type: functional; conditions: DU-145, 48 h, read-out: Activity
SK-MEL-5 = assay: Growth inhibition of human SK-MEL-5 cells assessed as cell growth at 100 uM incubated for 48 hrs by sulforhodamine B assay relative to control; assay type: functional; conditions: SK-MEL-5, 48 h, read-out: Activity
NCI-H460 = assay: Growth inhibition of human NCI-H460 cells assessed as cell growth at 0.01 uM incubated for 48 hrs by sulforhodamine B assay relative to control; assay type: functional; conditions: NCI-H460, 48 h, read-out: Activity
MDA-MB-468 = assay: Growth inhibition of human MDA-MB-468 cells assessed as cell growth at 100 uM incubated for 48 hrs by sulforhodamine B assay relative to control; assay type: functional; conditions: MDA-MB-468, 48 h, read-out: Activity
SF-539 = assay: Growth inhibition of human SF539 cells assessed as cell growth at 100 uM incubated for 48 hrs by sulforhodamine B assay relative to control; assay type: functional; conditions: SF-539, 48 h, read-out: Activity
M14 = assay: Growth inhibition of human M14 cells assessed as cell growth at 0.1 uM incubated for 48 hrs by sulforhodamine B assay relative to control; assay type: functional; conditions: M14, 48 h, read-out: Activity
NCI/ADR-RES = assay: Growth inhibition of human NCI/ADR-RES cells assessed as cell growth at 1 uM incubated for 48 hrs by sulforhodamine B assay relative to control; assay type: functional; conditions: read-out: Activity
MCF7 = assay: Growth inhibition of human MCF7 cells assessed as cell growth at 1 uM incubated for 48 hrs by sulforhodamine B assay relative to control; assay type: functional; conditions: MCF7, 48 h, read-out: Activity
MDA-MB-231 [3] = assay: Growth inhibition of human MDA-MB-231 cells assessed as cell growth at 100 uM incubated for 48 hrs by sulforhodamine B assay relative to control; assay type: functional; conditions: MDA-MB-231, 48 h, read-out: Activity
CCRF-CEM = assay: Growth inhibition of human CCRF-CEM cells assessed as cell growth at 1 uM incubated for 48 hrs by sulforhodamine B assay relative to control; assay type: functional; conditions: read-out: Activity
KM12 [4] = assay: Growth inhibition of human KM12 cells assessed as cell growth at 0.01 uM incubated for 48 hrs by sulforhodamine B assay relative to control; assay type: functional; conditions: KM12, 48 h, read-out: Activity
CAKI-1 = assay: Growth inhibition of human Caki1 cells assessed as cell growth at 0.1 uM incubated for 48 hrs by sulforhodamine B assay relative to control; assay type: functional; conditions: CAKI-1, 48 h, read-out: Activity
HCC 2998 = assay: Growth inhibition of human HCC2998 cells incubated for 48 hrs by sulforhodamine B assay; assay type: functional, cell-based; conditions: HCC 2998, 48 h
UACC-257 = assay: Growth inhibition of human UACC257 cells incubated for 48 hrs by sulforhodamine B assay; assay type: functional, cell-based; conditions: UACC-257, 48 h
MOLT-4 = assay: Growth inhibition of human MOLT4 cells incubated for 48 hrs by sulforhodamine B assay; assay type: functional, cell-based; conditions: MOLT-4, 48 h
KM12 [5] = assay: Growth inhibition of human KM12 cells assessed as cell growth at 0.1 uM incubated for 48 hrs by sulforhodamine B assay relative to control; assay type: functional; conditions: KM12, 48 h, read-out: Activity
MDA-MB-231 [6] = assay: Growth inhibition of human MDA-MB-231 cells incubated for 48 hrs by sulforhodamine B assay; assay type: functional, cell-based; conditions: MDA-MB-231, 48 h
NCI-H522 = assay: Growth inhibition of human NCI-H522 cells assessed as cell growth at 0.1 uM incubated for 48 hrs by sulforhodamine B assay relative to control; assay type: functional; conditions: NCI-H522, 48 h, read-out: Activity
SNB-75 = assay: Growth inhibition of human SNB75 cells assessed as cell growth at 0.01 uM incubated for 48 hrs by sulforhodamine B assay relative to control; assay type: functional; conditions: SNB-75, 48 h, read-out: Activity
SN12C = assay: Growth inhibition of human SN12C cells assessed as cell growth at 1 uM incubated for 48 hrs by sulforhodamine B assay relative to control; assay type: functional; conditions: read-out: Activity
SK-MEL-2 = assay: Growth inhibition of human SK-MEL-2 cells assessed as cell growth at 100 uM incubated for 48 hrs by sulforhodamine B assay relative to control; assay type: functional; conditions: SK-MEL-2, 48 h, read-out: Activity
NCI-H226 = assay: Growth inhibition of human NCI-H226 cells assessed as cell growth at 100 uM incubated for 48 hrs by sulforhodamine B assay relative to control; assay type: functional; conditions: NCI-H226, 48 h, read-out: Activity
[7] = read-out: LC50 (the source's name)
[8] = read-out: pLC50 (the source's name) (converted)

## O=C(Nc1cccc(-n2cc(-c3ccncc3)c(-c3cc(O)cc(Cl)c3)n2)c1)c1cc(C(F)(F)F)cc(C(F)(F)F)c1
PC-3
  IC50: 2.28 µM
PC-3; read-out: GI50
  GI50: 2.28 µM
PC-3; [7]
  CC50: > 100 µM
PC-3; read-out: TGI
  TGI: 22.5 µM
PC-3; read-out: pGI50 (converted)
  GI50: 2.29 µM
PC-3; [8]
  CC50: > 100 µM
PC-3; read-out: pTGI (converted)
  TGI: 28.2 µM
SNB-19; read-out: GI50
  GI50: 7.03 µM
SNB-19; [7]
  CC50: > 100 µM
SNB-19; read-out: TGI
  TGI: > 100 µM
SNB-19; read-out: pGI50 (converted)
  GI50: 7.08 µM
SNB-19; [8]
  CC50: > 100 µM
SNB-19; read-out: pTGI (converted)
  TGI: > 100 µM
NCI-H322M [1]
  growth at 0.1 µM: 90%
MDA-MB-435
  growth at 0.01 µM: 91%
NCI-H322M [2]
  growth at 0.01 µM: 103%
DU-145
  growth at 0.01 µM: 104%
SK-MEL-5
  growth at 100 µM: -45%
NCI-H460
  growth at 0.01 µM: 101%
MDA-MB-468
  growth at 100 µM: 2%
SF-539
  growth at 100 µM: -13%
M14
  growth at 0.1 µM: 93%
NCI/ADR-RES
  growth at 1 µM: 94%
MCF7
  growth at 1 µM: 54%
MDA-MB-231 [3]
  growth at 100 µM: -84%
CCRF-CEM
  growth at 1 µM: 56%
KM12 [4]
  growth at 0.01 µM: 96%
CAKI-1
  growth at 0.1 µM: 98%
HCC 2998; read-out: GI50
  GI50: 3.12 µM
HCC 2998; [7]
  CC50: > 100 µM
HCC 2998; read-out: TGI
  TGI: 11.6 µM
HCC 2998; read-out: pGI50 (converted)
  GI50: 3.09 µM
HCC 2998; [8]
  CC50: > 100 µM
HCC 2998; read-out: pTGI (converted)
  TGI: 11.7 µM
UACC-257; read-out: GI50
  GI50: 4.23 µM
UACC-257; [7]
  CC50: > 100 µM
UACC-257; read-out: TGI
  TGI: 51.2 µM
UACC-257; read-out: pGI50 (converted)
  GI50: 4.27 µM
UACC-257; [8]
  CC50: > 100 µM
UACC-257; read-out: pTGI (converted)
  TGI: 51.3 µM
MOLT-4; read-out: GI50
  GI50: 2.38 µM
MOLT-4; [7]
  CC50: > 100 µM
MOLT-4; read-out: TGI
  TGI: > 100 µM
MOLT-4; read-out: pGI50 (converted)
  GI50: 2.4 µM
MOLT-4; [8]
  CC50: > 100 µM
MOLT-4; read-out: pTGI (converted)
  TGI: > 100 µM
KM12 [5]
  growth at 0.1 µM: 97%
MDA-MB-231 [6]; read-out: GI50
  GI50: 1.42 µM
MDA-MB-231 [6]; [7]
  CC50: 77.8 µM
MDA-MB-231 [6]; read-out: TGI
  TGI: 33.2 µM
MDA-MB-231 [6]; read-out: pGI50 (converted)
  GI50: 1.41 µM
MDA-MB-231 [6]; [8]
  CC50: 7.76 µM
MDA-MB-231 [6]; read-out: pTGI (converted)
  TGI: 3.31 µM
NCI-H522
  growth at 0.1 µM: 30%
SNB-75
  growth at 0.01 µM: 58%
SN12C
  growth at 1 µM: 91%
SK-MEL-2
  growth at 100 µM: -43%
NCI-H226
  growth at 100 µM: 19%
